{"source": "paper PMC9822769", "about": "“The Strange Case: The Unsymmetric Cisplatin-Based Pt(IV) Prodrug [Pt(CH3COO)Cl2(NH3)2(OH)] Exhibits Higher Cytotoxic Activity with respect to Its Symmetric Congeners due to Carrier-Mediated Cellular Uptake” (Bioinorganic Chemistry and Applications, 2022)", "system": "A2780 cells", "test": "DNA platination in A2780 cells", "format": "cell-based, human", "settings": "A2780, 24 h CT, 10 μM", "description": "Cells were seeded in 175 cm^2 flasks and treated for 24 h with the complexes under investigation (10 μM) as described previously. From this sample, about 5 × 10^6 cells were taken out for the cellular accumulation analysis (see the previous section), whereas about 20 × 10^6 cells were taken out for the DNA platination analysis.\nFor DNA platination analysis, cells were transferred to a plastic tube and centrifuged at 1100 rpm for 5 min at room temperature. […]\nAfter washing, DNA was eluted in 300 μL of elution buffer. […] Absorbance at 260 nm (A260, relative to nucleic acids) and 280 nm (A280, relative to proteins) was recorded from triplicate wells.\nFor each well, A260 and A280 were corrected by subtracting the background, and then the purity of the samples was verified by means of the A260 to A280 ratio. After subtracting the mean A260 from the blank wells, the DNA concentration was calculated from the corrected A260 using a calibration curve obtained with the calf thymus DNA. Under these conditions, an absorbance of 1 unit at 260 nm corresponds to 100 μg of DNA per mL. The remaining amount of DNA elution buffer was transferred to a borosilicate glass tube, and its precise volume was determined by weight to calculate the total amount of DNA and then stored at −20°C until mineralization. […]", "data": [{"smiles": "CC(=O)[O][Pt]([OH])([Cl])[Cl].N.N", "note": "[Complex 2, (OC-6-44)-acetatodiamminedichloridohydroxidoplatinum(IV)]", "values": [{"measurement": "DNA platination", "result": "the highest among Complexes 1–3 and was similar to that of cisplatin"}]}]}
